Test results from patent publication US12352767B2, “Method of treating cognitive decline associated with neurological diseases based on a decrease in FLT4 expression or activity” (University of Virginia Patent Foundation, priority 2018, dated 2025).
“Also recorded” adds a separate entry of the source.

How the values were obtained:
[1] = test system: meningeal lymphatic vessels; assay: Meningeal whole-mount immunostaining (LYVE-1/CD31): lymphatic vessel area and diameter, blood vessel coverage
Experimental: Selective ablation of the meningeal lymphatic vessels was achieved by i.c.m. injection and transcranial photoconversion of Visudyne® (verteporfin for injection, Valeant Ophtalmics). Visudyne was reconstituted following manufacturer instructions and 5 μL was injected i.c.m. following the previously described procedure. […] Each spot was irradiated with a light dose of 50 J/cm^2 at an intensity of 600 mW/cm^2 for a total of 83 s. Controls were injected with the same volume of Visudyne (without the photoconversion step) or sterile saline plus photoconversion (vehicle/photoconversion). The scalp skin was then sutured, the mice were subcutaneously injected with ketoprofen (2 mg/Kg) and allowed to recover on a heating pad until fully awake.
A hydrogel of 1.4% hyaluronic acid and 3% methylcellulose alone (vehicle) or with 200 ng/mL of encapsulated human VEGF-C (PeproTech) or VEGF-C156S (R&D Systems) was prepared as described elsewhere^49. Briefly, lyophilized, sterile methylcellulose (4000 cP, Sigma-Aldrich) and sterile hyaluronic acid (1500-1800 kDa, Sigma-Aldrich) were sequentially dissolved in sterile 0.1 M phosphate buffered saline (PBS) at 4° C. overnight. Lyophilized VEGF-C or VEGF-C156S were resuspended as particulate at 2000 ng/mL in 0.5% sterile methylcellulose in PBS. The particulate solution, or vehicle 0.5% methylcellulose, was mixed into the hydrogel pre-solution at 1:10, and loaded into a syringe for gelation at 37° C. […] The hydrogels were prepared on the day of the experiment and kept warm inside the individual syringes until applied onto the mouse's skull. […] An incision was made in the scalp skin and the skull was thinned at the junction of all sinuses and above the transverse sinus. The shear-thinning properties of the polymers allowed the extrusion of 100 μL of each hydrogel solution from the syringe into the thinned skull surface. The scalp skin was then sutured on top of the solidified hydrogel, the mice were subcutaneously injected with ketoprofen (2 mg/Kg) and allowed to recover on a heating pad until fully awake.
Mice were given a lethal dose of anesthetics by intraperitoneal (i.p.) injection of Euthasol (10% v/v in saline). When needed, CSF was collected from the cisterna magna using a 0.5 mm diameter borosilicate glass pipette with internal filament and immediately stored at −80° C. Mice were then transcardially perfused with ice cold PBS with heparin (10 U/mL). Deep cervical lymph nodes were dissected and drop fixed in 4% paraformaldehyde (PFA) for 12 hours at 4° C. After stripping the skin and muscle from the bone the head was collected and drop fixed in 4% PFA. […] The brains were kept in 4% PFA for additional 24 hours (48 hours in total). […]

mice [2] = assay: Open field test; type: in vivo; conditions: Visudyne/photoconversion twice, two-week interval, adult mice
Experimental: Open field was performed following a published protocol^51 with minor modifications. Mice were carried to the behavior room to habituate at least 30 min before starting the test. Mice were then placed into the open field arena (made of opaque white plastic material, 35 cm×35 cm) by a blinded experimenter and allowed to explore it for 15 min. Total distance (cm) and % time spent in the center (22 cm×22 cm) were quantified using video tracking software (TopScan, CleverSys, Inc.).

mice [3] = assay: Novel location recognition test; type: in vivo; conditions: Visudyne/photoconversion twice, adult mice
Experimental: Novel location recognition test was performed following a published protocol^52 with modifications. The experimental apparatus used in this study was the same square box made of opaque white plastic (35 cm×35 cm) used in the Open field test. The mice were first habituated to the apparatus for 15 min. Two different plastic objects (one red and the other blue and with different shapes) were then positioned in a defined spatial orientation, namely on each corner of the arena and 5 cm away from each adjacent arena wall. Mice were then placed in the arena (by a blinded experimenter), facing the wall farther away from the objects and allowed to explore the arena and objects for 10 min. Twenty-four hours later, the mice were placed in the same box with the same two objects, but one of them had switched location and was placed in a new quadrant, obliquely to the familiar object (novel location test). The time spent exploring the objects in the familiar and novel locations was also measured for 10 min. Exploration of an object was assumed when the mouse approached an object and touched it with its vibrissae, snout or forepaws and was measured using a video tracking software (TopScan, CleverSys, Inc.). The object location preference (% of time with object) was calculated as the exploration time of the objects in the familiar or in the novel location/total exploration time.

mice [4] = assay: Morris water maze test; type: in vivo; conditions: Visudyne/photoconversion twice, adult mice
Experimental: The Morris water maze test was performed as described before^53, but with modifications. Mice were transported to the behavior room to habituate at least 30 min before starting the test. The MWM test consisted of 4 days of acquisition, 1 day of probe trial and 2 days of reversal. In the acquisition, mice performed four trials per day, for 4 consecutive days, to find a hidden 10-cm diameter platform located 1 cm below the water surface in a pool 1 m in diameter. Tap water was made opaque with nontoxic tempera white paint and the water temperature was kept at 23±1° C. A dim light source was placed within the testing room and only distal visual cues were available above each quadrant of the swimming pool to aid in the spatial navigation and location of the submerged platform. The latency to platform, e.g., the time required by the mouse to find and climb onto the platform, was recorded for up to 60 s. Each mouse was allowed to remain on the platform for 20 s and was then moved from the maze to its home cage. […] During the acquisition, probe and reversal, data were recorded using the EthoVision automated tracking system (Noldus Information Technology). The mean latency (in s) of the four trials was calculated for each day of test. The % of time in the platform quadrant was calculated for the probe trial. […] The mean % of allocentric navigation of four trials was calculated for each day.

Substance: verteporfin [Visudyne]
- ablation of meningeal lymphatics (LYVE-1+ lymphatic vessels) ([1]; Visudyne 5 μL i.c.m. + transcranial photoconversion, adult mice): loss of meningeal vessel staining; also recorded: effective ablation of meningeal lymphatics
- duration of meningeal lymphatic ablation ([1]; Visudyne i.c.m. + transcranial photoconversion): at least 7 days
- open field time in center of the arena (mice [2]): No differences between the groups
- open field total distance (mice [2]): No differences between the groups
- NLR novel location task (time with object in novel location) (mice [3]): No differences between the groups; also recorded: identical
- NLR training performance (mice [3]): identical
- MWM spatial learning (mice [4]): significant deficits in spatial learning
